Measurements as given in patent US7094761B2, “Methods and compounds for prevention and treatment of elevated intraocular pressure and related conditions” (Theratechnologies Inc., priority 2002, dated 2006).

Tested on: intraocular pressure in piglets
Conditions: for IC50: pig, in vivo; for effect on basal intraocular pressure: piglet, peptide in saline applied topically as drops, monitored for 15 min
Method: Method: Newborn pigs (1–3 days old) were anesthetized with 1.5% halothane for tracheostomy and catheterization of the right femoral vein for drug administration. Animals were ventilated by means of a Harvard small animal respirator with a gas mixture of 25% O2 and 75% N2. Halothane was discontinued after surgery and immediately thereafter the animals were sedated with Alpha-chloralose (50 mg/kg i.v.) and paralyzed with pancuronium (0.1 mg/kg i.v.). Animals were placed under radiant warmer to keep their body temperature at 37° C. A butterfly needle (24G) is inserted into the anterior chamber of both eyes and connected to a Statham pressure transducer connected to a Gould multichannel recorder. Intraocular pressure is then allowed to stabilize for 15 minutes. […] The intraocular pressure was monitored for 15 minutes at which time a maximal effect was observed.
Peptides dissolved in saline were applied to the eye after 15 min of stabilization of intraocular pressure and changes in pressure were monitored for 15 min. The deviation (negative for hypotension) was plotted as a function of time (min).
The experiments were done as above, except that intraocular pressure was plotted versus the dose of peptide used.

## CC[C@H](C)[C@H](N)C(=O)N[C@@H](Cc1ccccc1)C(=O)N[C@@H](CC(=O)O)C(=O)N[C@@H](CO)C(=O)N[C@H](C(=O)N[C@@H](CCC(=O)O)C(=O)N[C@@H](CS)C(=O)N[C@@H](Cc1c[nH]c2ccccc12)C(=O)O)[C@@H](C)O [Peptide 1405, NH2-Ile Phe Asp Ser Thr Gln Cys Trp-OH]
  IC50: 0.342 µM
  effect on basal intraocular pressure: produced a decrease in ocular pressure

## H-HIICSPLR-OH [Peptide 1402, NH2-His Ile Ile Cys Ser Pro Leu Arg-OH]
  IC50: 0.0864 µM
  effect on basal intraocular pressure: produced a decrease in ocular pressure

## NH2-Phe Ser Leu Thr Gln Lys Tyr Cys-OH (H-FSLTQKYC-OH) [Peptide 1401]
  effect on basal intraocular pressure: produced a decrease in ocular pressure
